Measured values taken from patent publication US20090170845A1, “USE OF IMIDAZO[2,1-b]-1,3,4-THIADIAZOLE-2-SULFONAMIDE COMPOUNDS TO TREAT NEUROPATHIC PAIN” (AEGERA THERAPEUTICS INC., priority 2006, published 2009).

Legend:
Assay type in all cases: in vivo, rat
[1] = tested on: STZ treated diabetic rats; assay: Sensory nerve conduction velocity (SNCV) in STZ diabetic rats, reversal paradigm, 2 months treatment
Description: (§1) The effects of Compound 150 on nerve conduction (both motor and sensory) and axonal atrophy were examined in diabetic rats. A blinded reversal interventional paradigm was applied to evaluate two related small molecules on established experimental rat diabetic peripheral neuropathy of 2 months duration given over a subsequent 2 months, specifically evaluating motor and sensory conduction and sural axon caliber.
(§2) Male Sprague-Dawley rats (200-300 g) raised on sawdust covered plastic cages in a room with normal light dark timing and fed with standard rat chow were used for this experiment. The protocol was reviewed and approved by the University of Calgary Animal Care Committee adhering to the guidelines of the Canadian Council on Animal Care (CCAC). Diabetes was induced by a single intraperitoneal injection of streptozotocin (STZ) in citrate buffer (65 mg/kg) with age-matched controls given the buffer without STZ. Animals were used for the study if fasting glucose levels 5-7 days later were ≧16.0 mmol/L (One Touch FasTake strips, Johnson and Johnson).
(§3) Treatments were applied after 2 months of hyperglycemia for a duration of 2 months. Motor conduction recordings (1-3) were made prior to intervention then after […]. Sensory conduction utilized the approach of Parry and Kozu involving stimulation of the digital branches of the sciatic nerve and recording from the sciatic nerve at the level of the popliteal fossa with near nerve temperature maintained at 37° C. (4).
(§4) For statistical analysis, we studied mean values with standard errors of the means and compared values in the interventional groups with one way ANOVA or repeated measures ANOVA and post hoc Student's t-tests.

[2] = tested on: Complete Freund's Adjuvant (CFA) model of hyperalgesia in rats; assay: CFA-induced tactile hyperalgesia in rats; conditions: for activity in CFA model of hyperalgesia: subcutaneous and/or oral delivery
Description: Complete Freund's Adjuvant (CFA) was used to induce an inflammatory response, resulting in hyperalgesia. This model was chosen as a second experimental paradigm to obtain direct evidence for activity of the compounds against pain states because of its link with the induction of aberrant JNK phosphorylation, and evidence that this signaling cascade appears to, at least in part, mediate the pain response in this model (Doya et al., 2005).
Female Sprague Dawley rats were given either vehicle or Compound 150 (10 mg/kg, sc), 155 (1-10 mg/kg, sc), 157 (1-10 mg/kg, sc; 10-40 mg/kg, po) or 158 (10 mg/kg, sc) 6 hours prior to pain testing (compounds 150, 155, 157, and 158 were dissolved in 20% HPCD at 1-10 mg/mL). Compound 157 was also tested under conditions of repeat dosing where it was given at 5-20 mg/kg, po for five consecutive days. Under all treatment conditions, a single injection of CFA (50 uL) was given into the plantar surface of the right hind paw 1 hour prior to pain testing (i.e., 5 hours after the final administration of compound). Immediately after the CFA injection, animals were placed in testing chambers with a wire mesh bottom to habituate. Standard von Frey filaments were used to assess tactile response thresholds. The left, un-injected paw served as a control. Fibers were applied in the manner described by Dixon (1980) using the up-down method. The 50% withdrawal threshold (in grams) was determined for each paw.

[3] = tested on: STZ treated diabetic rats; assay: Sural nerve myelinated axon morphometry in STZ diabetic rats; conditions: 5 of 7 days, 2 months of treatment
Method: as §2
At endpoint (4 months of diabetes, 2 months of treatment) the rats were euthanized and sural nerves harvested for morphometric studies. Sural nerves were fixed in cacodylate buffered glutaraldehyde, dehydrated with alcohols, fixed in osmium tetroxide then embedded in epon to generate one micron sections, as in previous work (5,6). Sections were photographed under oil immersion (1000×) to sample the entire sural nerve. Images were analyzed using Scion image offline to measure axon area for 100 myelinated axons for each sural nerve fascicle. […] For sural nerves with more than one fascicle, each fascicle underwent separate analysis and a mean axon area was calculated for the rat from the fascicles. […]

[4] = tested on: STZ treated diabetic rats; assay: Motor nerve conduction velocity (MNCV) in STZ diabetic rats, reversal paradigm, 2 months treatment
Description: as §1, §2, §3, §4

[5] = tested on: diabetic rats; assay: Tactile allodynia (von Frey) in diabetic rats (DN); conditions: for neuropathic pain in diabetic rats: subcutaneous and/or oral delivery routes; for established neuropathic pain state in diabetic rats: Study 2, 10 mg/kg sc for 14 consecutive days
Method: The effects of compounds 150, 155, 157 and 158 on neuropathic pain responses characterized by tactile allodynia in diabetic rats were examined. A blinded reversal interventional paradigm was applied to evaluate the compounds, with therapy initiated when an aberrant pain state was clearly established. The effects of single or repeat (5 or two days per week) dosing regimen were assessed as described.
Rats (female Sprague Dawley; 250-270 g) were rendered diabetic with the commercially available agent streptozotocin and, were compared to vehicle-treated age matched controls, maintained for up to 6 weeks or more. Standard physiologic parameters (body weight and blood glucose) were recorded before, during and after the study to assess the metabolic status of animals.
Study 1: Both normal and diabetic groups were divided into two groups of 12 and received either vehicle or Compound 150 in 20% HPCD (10 mg/kg, sc) 5 days per week, for two weeks. Standard indices of sensory nerve function (tactile response threshold) were measured at baseline, prior to drug treatments, 48 hours after the 5th dose, and again prior to sacrifice (after the 10th dose) along with the standard physiologic parameters of body weight and plasma glucose.
Study 2: As per Study 1, except animals were treated with either compound 157 or 158 in 20% HPCD (10 mg/kg, sc) for 14 consecutive days.
Study 3: After 1 month of diabetes rats were treated subcutaneously with a single administration of 150, 155, 157, 154, 158 or 160 in 20% HPCD, as indicated; orally by gavage with a single administration of 157, or for 5 consecutive days by oral gavage with 157 and 158 to assess cumulative effects. The effect of the compounds was assessed 6 hours after the single or final administration.
Detailed methods for performing the behavioral tasks can be found in Journal of Neuroscience Methods (1994), 53: 55-63 and Methods in Molecular Medicine, Volume 99: Pain Research: methods and protocols, edited by Z. D. Luo, Humana Press Inc., Totowa, N.J.

[6] = sc, acute single, 6 hours after administration
[7] = po, 5 d loading (5 consecutive days)
[8] = po, 5 d loading (repeated dosing)

Compound	CFA (effect on tactile hyperalgesia) ([2]; sc, acute single)	activity in CFA model of hyperalgesia [2]	DN, effective dose ([5]; sc, acute single) [mg/kg]	DN (effect on tactile allodynia in diabetic rats) [5, 6]	neuropathic pain in diabetic rats [5]	established neuropathic pain state in diabetic rats [5]	DN (effect on tactile allodynia in diabetic rats) [5, 7]	DN, effective dose [5, 8] [mg/kg]	also measured
O=S(=O)([N-][Na+])c1nn2cc(-c3ccc(-c4cccc(C(F)(F)F)c4)cc3)nc2s1 [Compound 150]	attenuated CFA-induced tactile hyperalgesia and +ve	active	10	Effects of single administrations were observed and +ve	–	–	–	–	SNCV v vehicle treated diabetics at 2 months ([1]; 5 days/week): significantly better than vehicle treated diabetics; SNCV change from baseline to 2 months (within diabetic groups) ([1]; diabetic rats, 2 months of treatment): did not significantly change from baseline; SNCV, diabetics v normals after 2 months of treatment ([1]; dosed 2 days per week): did not confer similar protection; SNCV, diabetics v normals after 2 months of treatment ([1]; dosed 5 days per week): not significantly different from normals; SNCV v vehicle treated diabetics at 2 months ([1]; twice per week): did not afford similar protection; mean area of all measured sural myelinated axons, diabetics given compound vs. vehicle [3]: rise in mean axonal area; mean axonal area of large (greater than 9 microns squared) myelinated axons, diabetics given compound vs. vehicle [3]: significant increase in mean axonal area; MNCV v vehicle treated diabetics at 2 months ([4]; 2×/week): significantly better than vehicle treated diabetics; MNCV change from baseline to 2 months (within diabetic groups) ([4]; 2 days per week): identical effects as the drug given 5 days per week; MNCV, diabetics v normals ([4]; 2 days per week): did not restore MNCV to normal; MNCV change from baseline to 2 months (within diabetic groups) ([4]; 5 days per week): significant improvement in MNCV; MNCV v vehicle treated diabetics at 2 months ([4]; 5 days per week): significantly better than vehicle treated diabetics; MNCV, diabetics v normals ([4]; 5 days per week): did not restore MNCV to normal; response to tactile stimulation with multiple dosing ([5]; Study 1, diabetic rats, 10 mg/kg sc 5 days per week for two weeks): consistently responding within the normal range; tactile allodynia six hours after the initial treatment ([5]; Study 1, diabetic rats, 10 mg/kg sc in 20% HPCD): tactile allodynia was reversed
O=S(=O)([N-][Na+])c1nn2cc(-c3ccc(Cl)c(Cl)c3Cl)nc2s1 [Compound 154]	–	–	–	Effects of single administrations were observed and +ve	can reverse neuropathic pain	–	–	–	–
O=S(=O)([N-][Na+])c1nn2cc(-c3ccc4c(c3)OCCCO4)nc2s1 [Compound 155]	attenuated CFA-induced tactile hyperalgesia and +ve	active	≤ 10	Effects of single administrations were observed and +ve	can reverse neuropathic pain	–	–	–	–
COCCOCCOc1ccc(-c2cn3nc(S(=O)(=O)[N-][Na+])sc3n2)cc1 [Compound 157]	attenuated CFA-induced tactile hyperalgesia and +ve	active	<10	Effects of single administrations were observed	can reverse neuropathic pain	reversed an established neuropathic pain state	equivalent efficacy was observed and +ve	5 to 10	CFA (effect on tactile hyperalgesia) ([2]; po, 5 d loading): +ve; CFA, effective dose ([2]; po, 5 d loading): 5 to 10 mg; CFA (effect on tactile hyperalgesia) ([2]; po, acute single): efficacious and +ve; CFA, effective dose ([2]; po, acute single): 20 to 40 mg/kg; CFA, required dose range ([2]; po, daily dosing for 5 consecutive days): 5 to 10 mg/kg; duration of effect on pain after a single administration ([5]; diabetic rats, single administration): 24 h; DN, effective dose ([5]; po, 5 d loading): 5 to 10 mg; DN, effective dose ([5]; po, acute single): 10 to 20 mg/kg; DN (effect on tactile allodynia in diabetic rats) ([5]; po, acute single, 6 hours after administration): Effects of single administrations were observed and +ve
CC(C)(C)c1ccc(-c2cn3nc(S(=O)(=O)[N-][Na+])sc3n2)cc1 [Compound 158]	attenuated CFA-induced tactile hyperalgesia and +ve	active	≤ 10	Effects of single administrations were observed and +ve	can reverse neuropathic pain	reversed an established neuropathic pain state	equivalent efficacy was observed and +ve	5 to 10	CFA, effective dose ([2]; sc, acute single): ≤ 10 mg/kg
O=S(=O)([N-][Na+])c1nn2cc(-c3cc(C(F)(F)F)ccc3Cl)nc2s1 [Compound 160]	–	–	10	Effects of single administrations were observed and +ve	can reverse neuropathic pain	–	–	–	–
